# Measured values: US12508266B2 (priority 2010, dated 2025)
# Columns and labels:
# Respiratory Syncytial A2 [1] = assay type: cell-based, Respiratory syncytial virus
# Pichinde [2] = assay type: cell-based
# Junin Candid 1 [3] = assay type: cell-based, Junin virus
# [4] = tested on: Influenza A H1N1 CA/04/2009 (Pandemic H1N1); assay type: cell-based
# Junin Candid 1 [5] = assay type: cell-based, Junin virus; remark: listed apart in the source
# SARS-CoV Urbani [6] = assay type: cell-based, SARS corona virus
# [7] = tested on: Adenovirus type 165089/Chicago; assay type: cell-based, Adenovirus (AV-1) type 1
# [8] = tested on: Yellow fever virus (Jimenez strain); parameters: species or system Syrian golden hamsters; conditions: hamster, in vivo
# in vitro [9] = conditions: human
# in vitro [10] = conditions: African green monkey
# [11] = tested on: Influenza A H5N1 VN/1203/2004 Hybrid (on H1N1 backbone); assay type: cell-based
# [12] = tested on: Adenovirus type 165089/Chicago; assay type: cell-based, Adenovirus (AV-1) type 1; remark: listed apart in the source
# in vitro [13] = conditions: African green monkey, Visual CPE Assay
# in vitro [14] = conditions: human; remark: listed apart in the source
# Rift Valley Fever MP-12 [15] = assay type: cell-based, Rift Valley fever virus
# MA-104 cells [16] = conditions: African green monkey
# Rhinovirus 2 HGP [17] = assay type: cell-based
# Rhinovirus 2 HGP [18] = assay type: cell-based; remark: listed apart in the source
# Yellow Fever 17D [19] = assay type: cell-based, Yellow fever virus
# [20] = tested on: Influenza A H1N1 CA/04/2009 (Pandemic H1N1); assay type: cell-based; remark: listed apart in the source
# Tacaribe TRVL 11573 [21] = assay type: cell-based
# [22] = tested on: Influenza A H5N1 VN/1203/2004 Hybrid (on H1N1 backbone); assay type: cell-based; remark: listed apart in the source
# [23] = tested on: Measles virus (MV), strain Chicago; test: Neutral Red Uptake Assay; assay type: cell-based; conditions: Vero 76 cells
# [24] = tested on: H3N2 virus (A/Victoria/3/75); parameters: species or system Balb/C mice; conditions: mouse, in vivo, po
# [25] = tested on: Influenza A H3N2 Brisbane/10/2007; assay type: cell-based
# [26] = tested on: Measles virus (MV), strain Chicago; test: Visual CPE Assay; assay type: cell-based; conditions: Vero 76 cells
# Dengue 2 New Guinea C [27] = assay type: cell-based, Dengue virus 2
# Parainfluenza 3 14702 [28] = assay type: cell-based, Parainfluenza virus type 3
# [29] = tested on: Marburg, Junin Candid 1, Pichinde, Chikungunya 181/25 and Vaccinia NYCBH; test: organism not typed; assay type: cell-based; conditions: read-out: EC50 values, range over several viruses
# [30] = tested on: Venezuelan Equine Encephalitis TC83; assay type: cell-based, Venezuelan equine encephalitis virus
# in vitro [31] = conditions: human; remark: listed apart in the source
# MA-104 cells [32] = conditions: African green monkey; remark: listed apart in the source
# [33] = tested on: Influenza A H3N2 Brisbane/10/2007; assay type: cell-based; remark: listed apart in the source
# Pichinde [34] = assay type: cell-based; remark: listed apart in the source
# Dengue 2 New Guinea C [35] = assay type: cell-based, Dengue virus 2; remark: listed apart in the source
# [36] = tested on: Measles virus (MV), strain Chicago; test: Virus Yield Reduction Assay; assay type: cell-based; conditions: Vero-76 cells, one log 10 drop in virus produced
# Tacaribe TRVL 11573 [37] = assay type: cell-based; remark: listed apart in the source
# West Nile [38] = assay type: cell-based, West Nile virus
# Respiratory Syncytial A2 [39] = assay type: cell-based, Respiratory syncytial virus; remark: listed apart in the source
# Punta Toro A2 [40] = assay type: cell-based, Punta Toro virus
# [41] = tested on: Venezuelan Equine Encephalitis TC83; assay type: cell-based, Venezuelan equine encephalitis virus; remark: listed apart in the source
# in vitro [42] = conditions: human; remark: listed apart in the source
# SARS-CoV Urbani [43] = assay type: cell-based, SARS corona virus; remark: listed apart in the source
# Punta Toro A2 [44] = assay type: cell-based, Punta Toro virus; remark: listed apart in the source
# Parainfluenza 3 14702 [45] = assay type: cell-based, Parainfluenza virus type 3; remark: listed apart in the source
# West Nile [46] = assay type: cell-based, West Nile virus; remark: listed apart in the source
# Rift Valley Fever MP-12 [47] = assay type: cell-based, Rift Valley fever virus; remark: listed apart in the source
# Influenza B Florida [48] = test: microbe, parasite or virus in culture; assay type: cell-based
# Yellow Fever 17D [49] = assay type: cell-based, Yellow fever virus; remark: listed apart in the source
# Influenza B Florida [50] = assay type: cell-based
structure (smiles),measurement,setting,value
"Nc1ncnc2c([C@@H]3N[C@H](CO)[C@@H](O)[C@H]3O)c[nH]c12 [Compound 1, (2S,3S,4R,5R)-2-(4-Amino-5H-pyrrolo[3,2-d]pyrimidin-7-yl)-5-(hydroxymethyl) pyrrolidine-3,4-diol]",SI Visual CPE Assay,Respiratory Syncytial A2 [1],0
same,SI Neutral Red Uptake Assay,Pichinde [2],6.7
same,SI Neutral Red Uptake Assay,Junin Candid 1 [3],14
same,SI Visual CPE Assay,[4],120
same,SI Visual CPE Assay,Junin Candid 1 [5],>17
same,SI Neutral Red Uptake Assay,SARS-CoV Urbani [6],>6.3
same,SI Neutral Red Uptake Assay,[7],>2.3
same,weight change,[8],weight gain over placebo and ribavirin administered pre-infection
same,CC50,in vitro [9],> 100 µg/mL
same,CC50,in vitro [10],52 µg/mL
same,SI Neutral Red Uptake Assay,[11],130
same,SI Visual CPE Assay,[12],>2.6
same,CC50,in vitro [13],100 µg/mL
same,CC50,in vitro [14],> 100 µg/mL
same,SI Neutral Red Uptake Assay,Rift Valley Fever MP-12 [15],6.6
same,IC50 Neutral Red Uptake Assay,MA-104 cells [16],>100 µg/mL
same,SI Visual CPE Assay,Rhinovirus 2 HGP [17],>1.8
same,SI Neutral Red Uptake Assay,Rhinovirus 2 HGP [18],>1.8
same,SI Visual CPE Assay,Yellow Fever 17D [19],43
same,SI Neutral Red Uptake Assay,[20],120
same,SI Neutral Red Uptake Assay,Tacaribe TRVL 11573 [21],2
same,SI Visual CPE Assay,[22],>1600
same,SI Neutral Red Uptake Assay,[23],>71
same,Mean weight change (grams ± SEM) Day 9,[24],0.01 ± 0.27 grams
same,SI Visual CPE Assay,[25],140
same,SI Visual CPE Assay,[26],>180
same,SI Visual CPE Assay,Dengue 2 New Guinea C [27],25
same,SI Visual CPE Assay,Parainfluenza 3 14702 [28],7.1
same,EC50,[29],≥ 10 µg/mL
same,SI Neutral Red Uptake Assay,[30],1.2
same,CC50,in vitro [31],> 100 µg/mL
same,IC50 Visual CPE Assay,MA-104 cells [32],>100 µg/mL
same,SI Neutral Red Uptake Assay,[33],79
same,SI Visual CPE Assay,Pichinde [34],>8.2
same,SI Neutral Red Uptake Assay,Dengue 2 New Guinea C [35],26
same,EC90 virus yield reduction,[36],0.37 µg/mL
same,SI Visual CPE Assay,Tacaribe TRVL 11573 [37],4.2
same,SI Visual CPE Assay,West Nile [38],0
same,SI Neutral Red Uptake Assay,Respiratory Syncytial A2 [39],0
same,SI Neutral Red Uptake Assay,Punta Toro A2 [40],0
same,SI Visual CPE Assay,[41],2.2
same,CC50,in vitro [42],> 100 µg/mL
same,SI Visual CPE Assay,SARS-CoV Urbani [43],>7.1
same,SI Visual CPE Assay,Punta Toro A2 [44],>1.6
same,SI Neutral Red Uptake Assay,Parainfluenza 3 14702 [45],52
same,SI Neutral Red Uptake Assay,West Nile [46],2.8
same,SI Visual CPE Assay,Rift Valley Fever MP-12 [47],9.1
same,SI Neutral Red Uptake Assay,Influenza B Florida [48],38
same,EC50,Influenza B Florida [48]; Influenza B virus,1.8 µg/mL
same,SI Neutral Red Uptake Assay,Yellow Fever 17D [49],38
same,SI Visual CPE Assay,Influenza B Florida [50],290
